From patent publication US5747336A, “Cloned human genes for muscarinic acetylcholine receptors and cells lines expressing same” (The United States of America as represented by the …, priority 1994, dated 1998)

Key:
human m2 receptor (Hm2) [1] = target: T1, human m2 receptor (Hm2) (Homo sapiens, UniProt P08172)
T1 sequence (P08172 1-466): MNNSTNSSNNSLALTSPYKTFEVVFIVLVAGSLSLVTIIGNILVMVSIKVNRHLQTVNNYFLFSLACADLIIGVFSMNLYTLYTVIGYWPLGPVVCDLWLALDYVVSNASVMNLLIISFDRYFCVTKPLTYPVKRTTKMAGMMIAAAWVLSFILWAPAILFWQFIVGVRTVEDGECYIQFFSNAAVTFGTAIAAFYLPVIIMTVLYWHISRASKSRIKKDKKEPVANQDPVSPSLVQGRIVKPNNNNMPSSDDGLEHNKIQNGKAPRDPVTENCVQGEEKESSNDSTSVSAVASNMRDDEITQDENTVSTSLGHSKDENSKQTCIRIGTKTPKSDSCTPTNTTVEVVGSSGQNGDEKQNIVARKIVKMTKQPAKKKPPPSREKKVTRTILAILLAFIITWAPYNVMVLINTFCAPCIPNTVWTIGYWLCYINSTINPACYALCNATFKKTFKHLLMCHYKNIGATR
Description: (§1) Data from two to four experiments were independently fit by nonlinear regression to a single mass-action binding site. The average values of the parameters derived from the fits and their standard errors are presented. […] Note Rm1 is the rat m1 receptor, not the human m1 receptor.

human m2 receptor (Hm2) [2] = target: T1, human m2 receptor (Hm2); experiment: biochemical
Description: as §1

human m3 receptor (Hm3) [3] = target: T2, human m3 receptor (Hm3) (Homo sapiens, UniProt P20309); experiment: biochemical
T2 sequence (P20309 whole entry): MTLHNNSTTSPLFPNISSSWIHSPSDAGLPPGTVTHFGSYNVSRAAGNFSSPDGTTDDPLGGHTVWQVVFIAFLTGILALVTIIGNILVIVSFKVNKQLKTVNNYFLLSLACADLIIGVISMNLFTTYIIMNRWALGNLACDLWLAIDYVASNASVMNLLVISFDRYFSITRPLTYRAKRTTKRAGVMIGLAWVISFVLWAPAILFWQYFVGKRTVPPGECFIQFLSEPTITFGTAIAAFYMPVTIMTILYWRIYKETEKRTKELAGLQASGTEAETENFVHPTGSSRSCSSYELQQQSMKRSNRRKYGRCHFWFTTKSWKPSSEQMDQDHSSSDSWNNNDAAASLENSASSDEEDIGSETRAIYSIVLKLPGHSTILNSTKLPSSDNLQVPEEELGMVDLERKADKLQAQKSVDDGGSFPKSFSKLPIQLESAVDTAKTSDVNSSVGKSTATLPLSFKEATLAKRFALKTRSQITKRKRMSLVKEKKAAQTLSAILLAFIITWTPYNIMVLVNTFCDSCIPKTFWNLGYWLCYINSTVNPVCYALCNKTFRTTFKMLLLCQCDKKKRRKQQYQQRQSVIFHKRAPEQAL
Description: (§2) All membranes, drugs and radioligands were made up in binding buffer which consisted of 25 mM sodium phosphate (pH 7.4) containing 5 mM magnesium chloride. Assays were conducted in 1 ml total volume. Final membrane protein concentrations were 30 ug/ml (m1), 70 ug/ml (m2), 4 μg/ml (m3), 7 μg/ml (m4), and 3 μg/ml (m5). […] Displaceable binding was assessed in the presence of 1 uM atropine sulphate. […]

rat m1 receptor (Rm1) [4] = target: T3, rat m1 receptor (Rm1) (Rattus norvegicus, UniProt P08482); experiment: biochemical
T3 sequence (P08482 1-460): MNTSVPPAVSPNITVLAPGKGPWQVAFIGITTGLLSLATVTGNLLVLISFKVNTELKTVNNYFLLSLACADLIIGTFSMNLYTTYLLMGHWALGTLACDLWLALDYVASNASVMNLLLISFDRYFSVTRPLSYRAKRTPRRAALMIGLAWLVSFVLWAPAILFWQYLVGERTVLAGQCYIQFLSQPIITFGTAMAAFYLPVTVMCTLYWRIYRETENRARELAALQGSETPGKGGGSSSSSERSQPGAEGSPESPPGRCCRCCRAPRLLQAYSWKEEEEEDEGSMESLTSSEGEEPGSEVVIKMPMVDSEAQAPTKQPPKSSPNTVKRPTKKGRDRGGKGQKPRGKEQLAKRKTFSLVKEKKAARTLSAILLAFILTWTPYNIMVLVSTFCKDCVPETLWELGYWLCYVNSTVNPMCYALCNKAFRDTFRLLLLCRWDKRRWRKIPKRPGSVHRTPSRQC
Description: as §2

human m3 receptor (Hm3) [5] = target: T2, human m3 receptor (Hm3)
Description: as §2

rat m1 receptor (Rm1) [6] = target: T3, rat m1 receptor (Rm1); conditions: inhibition of 3H-NMS binding
Description: as §2

human m4 receptor (Hm4) [7] = target: T4, human m4 receptor (Hm4) (Homo sapiens, UniProt P08173); experiment: biochemical
T4 sequence (P08173 1-479): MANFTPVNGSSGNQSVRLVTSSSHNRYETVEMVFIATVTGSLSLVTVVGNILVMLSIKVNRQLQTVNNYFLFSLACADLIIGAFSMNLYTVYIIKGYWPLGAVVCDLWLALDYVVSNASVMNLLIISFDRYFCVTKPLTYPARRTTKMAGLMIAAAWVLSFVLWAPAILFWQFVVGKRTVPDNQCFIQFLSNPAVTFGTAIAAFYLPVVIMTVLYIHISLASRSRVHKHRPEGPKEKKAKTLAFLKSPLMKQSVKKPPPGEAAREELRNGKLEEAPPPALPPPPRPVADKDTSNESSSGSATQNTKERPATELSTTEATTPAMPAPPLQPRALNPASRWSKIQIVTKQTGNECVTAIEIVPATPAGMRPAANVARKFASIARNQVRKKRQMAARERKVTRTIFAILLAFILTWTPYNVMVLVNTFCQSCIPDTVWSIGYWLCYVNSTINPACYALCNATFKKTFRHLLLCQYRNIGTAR

human m5 receptor (Hm5) = target: T5, human m5 receptor (Hm5) (Homo sapiens, UniProt P08912); experiment: 3H-NMS binding assay (direct and inhibition), membranes of transfected CHO cells, Hm5
T5 construct: expressed in transfected cells
T5 sequence (P08912 1-532): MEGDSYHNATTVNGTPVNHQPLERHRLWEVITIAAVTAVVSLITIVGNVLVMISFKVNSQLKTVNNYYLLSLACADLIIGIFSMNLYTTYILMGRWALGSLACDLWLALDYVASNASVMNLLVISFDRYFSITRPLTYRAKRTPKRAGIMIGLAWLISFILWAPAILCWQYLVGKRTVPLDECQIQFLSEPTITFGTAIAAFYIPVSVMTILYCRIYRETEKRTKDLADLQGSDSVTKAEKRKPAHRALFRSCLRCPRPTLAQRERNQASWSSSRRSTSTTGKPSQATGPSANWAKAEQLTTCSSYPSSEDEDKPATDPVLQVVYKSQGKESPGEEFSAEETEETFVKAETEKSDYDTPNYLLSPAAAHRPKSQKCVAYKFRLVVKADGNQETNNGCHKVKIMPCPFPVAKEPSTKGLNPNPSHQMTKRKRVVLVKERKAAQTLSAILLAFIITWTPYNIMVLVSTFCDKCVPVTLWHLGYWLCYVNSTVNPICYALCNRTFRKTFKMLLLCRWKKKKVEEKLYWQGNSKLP
Description: Cells were seeded into six well plates at a density of 10^5 cells/well in growth medium consisting of Minimum Eagle's, Medium supplemented with 10% fetal calf serum (Gibco) and 1000 U each of penicillin G and streptomycin and 4 mM glutamine (Whitaker M.A Bioproducts). Except for the overnight (10-16 hours) transfection (see below) cells were incubated in a humidified incubator at 37° C. and 5% CO2. […] Cells were transferred to a humidified incubator at 35° C. and 3% CO2 and incubated overnight (10-16 hours). […] At the end of selection, transfected cells were harvested and plated at limiting dilution into 96-well plates.
Transfected cells were grown to confluence, washed and scraped into cold binding buffer and homogenized for 30 seconds in a Tekmar Tissumizer (setting 50). Membranes were pelleted at 14,000 g, rehomogenized and the membrane protein determined using a Biorad Protein assay dye reagent. Membrane concentration was adjusted to 1mg protein/ml and stored frozen at -80° C. prior to use.
All membranes, drugs and radioligands were made up in binding buffer which consisted of 25 mM sodium phosphate (pH 7.4) containing 5 mM magnesium chloride. Assays were conducted in 1 ml total volume. Final membrane protein concentrations were 30 ug/ml (m1), 70 ug/ml (m2), 4 μg/ml (m3), 7 μg/ml (m4), and 3 μg/ml (m5). […] Displaceable binding was assessed in the presence of 1 uM atropine sulphate. Binding was terminated by filtration through a Brandel cell harvester onto Whatman GF/C filters.
Data from two to four experiments were independently fit by nonlinear regression to a single mass-action binding site. […] Note Rm1 is the rat m1 receptor, not the human m1 receptor.

human m4 receptor (Hm4) [8] = target: T4, human m4 receptor (Hm4); conditions: inhibition of 3H-NMS binding

Row | Compound | Ki (human m2 receptor (Hm2) [1]; Hm2, inhibition of 3H-NMS binding) | IC50 (human m2 receptor (Hm2) [2]) | IC50 (human m3 receptor (Hm3) [3]) | IC50 (rat m1 receptor (Rm1) [4]) | Ki (human m3 receptor (Hm3) [5]) | Ki (rat m1 receptor (Rm1) [6]) | IC50 (human m4 receptor (Hm4) [7]) | IC50 (human m5 receptor (Hm5)) | Ki (human m5 receptor (Hm5); Hm5, inhibition of 3H-NMS binding) | Ki (human m4 receptor (Hm4) [8]; Hm4) | average Hill number (H) (human m4 receptor (Hm4) [8]; m4, fit to single mass action binding site with variable Hill number) | Bmax (human m2 receptor (Hm2) [1]; Hm2 in CHO cell membranes, direct binding of 3H-NMS) | Bmax (human m5 receptor (Hm5); Hm5 in CHO cell membranes, direct binding of 3H-NMS)
1 | CCN(CC)CC1CCCCN1CC(=O)N1c2ccccc2C(=O)Nc2cccnc21 (stereo not shown) [AF-DX 116] | 260 nM | 360 ± 230 nM | 3100 ± 400 nM | 4300 ± 1200 nM | 820 nM | 1300 nM | 1800 ± 300 nM | 6800 ± 900 nM | 2800 nM | 450 nM | 0.79±0.03 |  | 
2 | C[N+]1(C)C2CC(OC(=O)C(CO)c3ccccc3)CC1C1OC12 (single isomer, unassigned) [^3 H-NMS, N-methylscopolamine] |  |  |  |  |  |  |  |  |  |  |  | 121 ± 63 fmol/mg protein | 2236 ± 590 fmol/mg protein
